Like-named read-outs stand apart in the source and are kept apart here.
Legend:
[1] = test system: scn1lab mutant zebrafish larvae; test: toxicity check of larvae after 90 min drug exposure (heartbeat, escape response); assay type: in vivo, Danio rerio; conditions: 90 min exposure; for toxicity in initial analogue screening: 100 µM or 250 µM
Method: For locomotion studies, zebrafish larvae (5 days post-fertilization) were placed into a single well of a clear flat-bottomed 96-well microplate containing embryo media. Sex determination is not possible at this stage of development. All drug screening experiments were conducted in an unbiased manner by investigators blinded to the test compounds and all files coded for post hoc analysis. The 96-well plate containing larvae was then placed inside a DanioVision box where they were allowed to acclimate (20 min; room temperature). EthoVision XT software (DanioVision, Noldus Information Technology) was used to obtain locomotion plots (10 min in duration). […] All locomotion plots were analysed for distance travelled (in millimetres) and mean velocity (in millimetres per second). After 90 min of drug exposure larvae were examined for toxic side-effects. Compounds that decreased or stopped the larva heartbeat, or reduced or eliminated the escape response when touched, were considered toxic.

human 5-HT2AR = human 5-HT2AR (Homo sapiens, UniProt P28223); test: radioligand binding (NIMH PDSP)
Method: (§1) All in vitro binding assay and Ki data studies were performed by the US National Institute of Mental Health Psychoactive Drug Screening Program (NIMH PDSP). For these studies, drugs were screened against recombinant, stably expressed human 5-HT2AR, 5-HT2BR, 5-HT2CR and H1, as described at https://pdspdb.unc.edu/pdspWeb/ ([Besnard et al., 2012]).

human 5-HT2BR = human 5-HT2BR (Homo sapiens, UniProt P41595); test: radioligand binding (NIMH PDSP); conditions: read-out: Ki 5-HT2BR
Method: as §1

human 5-HT2CR [2] = molecular target: T1, human 5-HT2CR (Homo sapiens, UniProt P28335); test: radioligand binding (NIMH PDSP)
T1 sequence (P28335 33-458): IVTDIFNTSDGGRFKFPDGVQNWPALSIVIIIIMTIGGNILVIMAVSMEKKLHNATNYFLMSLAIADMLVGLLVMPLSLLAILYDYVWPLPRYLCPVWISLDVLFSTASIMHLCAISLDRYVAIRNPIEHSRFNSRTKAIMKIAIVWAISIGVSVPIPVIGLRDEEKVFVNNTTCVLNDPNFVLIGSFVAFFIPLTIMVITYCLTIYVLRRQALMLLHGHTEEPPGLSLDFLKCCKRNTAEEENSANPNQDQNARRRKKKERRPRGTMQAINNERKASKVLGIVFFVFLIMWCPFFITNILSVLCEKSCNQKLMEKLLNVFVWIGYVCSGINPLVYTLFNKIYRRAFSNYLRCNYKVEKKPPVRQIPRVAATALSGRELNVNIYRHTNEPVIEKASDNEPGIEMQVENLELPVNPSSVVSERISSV
Method: as §1

human H1 = human H1 (Homo sapiens, UniProt P35367); test: radioligand binding (NIMH PDSP); conditions: read-out: Ki H1
Method: as §1

scn1lab mutant zebrafish = test: locomotion (mean swim velocity) seizure-like behaviour assay in scn1lab mutant zebrafish larvae; assay type: in vivo, Danio rerio; conditions: for effect on seizure-like swim behaviour, initial library screen: 100 µM or 250 µM, UCSF-synthesized compound; for change in vivo at 100 µM / change in vivo at 250 µM: Danio rerio; for effect on seizure-like swim behaviour, commercially available compounds: three concentrations
Method: For locomotion studies, zebrafish larvae (5 days post-fertilization) were placed into a single well of a clear flat-bottomed 96-well microplate containing embryo media. Sex determination is not possible at this stage of development. All drug screening experiments were conducted in an unbiased manner by investigators blinded to the test compounds and all files coded for post hoc analysis. The 96-well plate containing larvae was then placed inside a DanioVision box where they were allowed to acclimate (20 min; room temperature). EthoVision XT software (DanioVision, Noldus Information Technology) was used to obtain locomotion plots (10 min in duration). Seizure scoring was performed, as described ([Baraban et al., 2005]). All locomotion plots were analysed for distance travelled (in millimetres) and mean velocity (in millimetres per second). After 90 min of drug exposure larvae were examined for toxic side-effects. Compounds that decreased or stopped the larva heartbeat, or reduced or eliminated the escape response when touched, were considered toxic.
For behaviour analysis, the threshold for a change in mean swim velocity ≥40% is considered significant (>1.5× SD of 250 control treated scn1lab). Unless otherwise indicated, all data in this manuscript are presented as the mean ± standard error of the mean. […] Statistically significant differences are indicated with asterisks (*P < 0.05; **P < 0.01; ***P < 0.001). […]

human 5-HT2CR [3] = molecular target: T1, human 5-HT2CR; conditions: commercially available compounds known to bind 5-HT2BR; ref Roth et al., 2000; read-out: 5-HT2CR (nM), Table S3; cited from earlier work
[4] = recombinant, stably expressed human receptor, clemizole analogues
[5] = read-out: % change in velocity, individual larva 1 (heat map)
[6] = read-out: % change in velocity, individual larva 2 (heat map)
[7] = read-out: % change in velocity, individual larva 3 (heat map)
[8] = read-out: % change in velocity, individual larva 4 (heat map)
[9] = read-out: % change in velocity, individual larva 5 (heat map)
[10] = read-out: % change in velocity, individual larva 6 (heat map)
[11] = read-out: mean velocity change from six fish, Trial 1
[12] = read-out: mean velocity change from six fish, Trial 2

Sequence of human 5-HT2BR (P41595 whole entry): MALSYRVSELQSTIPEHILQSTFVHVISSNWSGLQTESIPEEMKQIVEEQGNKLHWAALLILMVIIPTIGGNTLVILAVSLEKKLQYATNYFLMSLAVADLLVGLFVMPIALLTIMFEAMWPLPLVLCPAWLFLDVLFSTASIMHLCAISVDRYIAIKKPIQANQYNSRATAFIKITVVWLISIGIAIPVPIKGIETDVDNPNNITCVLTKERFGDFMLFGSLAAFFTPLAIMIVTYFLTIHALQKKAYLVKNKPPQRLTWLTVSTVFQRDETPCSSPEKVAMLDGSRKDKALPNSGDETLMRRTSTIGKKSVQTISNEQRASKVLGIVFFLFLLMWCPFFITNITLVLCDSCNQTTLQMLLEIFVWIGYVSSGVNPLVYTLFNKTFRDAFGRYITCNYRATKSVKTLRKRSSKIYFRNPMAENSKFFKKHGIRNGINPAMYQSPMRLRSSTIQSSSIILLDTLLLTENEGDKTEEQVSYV
Sequence of human H1 (P35367 whole entry): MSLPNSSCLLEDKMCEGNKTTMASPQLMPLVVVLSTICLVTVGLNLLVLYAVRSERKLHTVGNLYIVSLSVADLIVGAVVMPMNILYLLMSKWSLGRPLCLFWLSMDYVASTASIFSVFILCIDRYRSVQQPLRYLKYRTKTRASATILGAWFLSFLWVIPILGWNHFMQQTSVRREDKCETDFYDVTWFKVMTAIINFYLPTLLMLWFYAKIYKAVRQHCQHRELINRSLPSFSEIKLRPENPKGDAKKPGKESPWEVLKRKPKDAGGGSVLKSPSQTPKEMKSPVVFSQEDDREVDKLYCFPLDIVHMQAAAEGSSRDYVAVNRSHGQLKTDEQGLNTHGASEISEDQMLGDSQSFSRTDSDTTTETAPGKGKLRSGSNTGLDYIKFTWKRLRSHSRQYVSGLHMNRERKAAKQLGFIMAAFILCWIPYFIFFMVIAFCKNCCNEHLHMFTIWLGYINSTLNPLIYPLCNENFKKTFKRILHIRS
Sequence of human 5-HT2AR (P28223 whole entry): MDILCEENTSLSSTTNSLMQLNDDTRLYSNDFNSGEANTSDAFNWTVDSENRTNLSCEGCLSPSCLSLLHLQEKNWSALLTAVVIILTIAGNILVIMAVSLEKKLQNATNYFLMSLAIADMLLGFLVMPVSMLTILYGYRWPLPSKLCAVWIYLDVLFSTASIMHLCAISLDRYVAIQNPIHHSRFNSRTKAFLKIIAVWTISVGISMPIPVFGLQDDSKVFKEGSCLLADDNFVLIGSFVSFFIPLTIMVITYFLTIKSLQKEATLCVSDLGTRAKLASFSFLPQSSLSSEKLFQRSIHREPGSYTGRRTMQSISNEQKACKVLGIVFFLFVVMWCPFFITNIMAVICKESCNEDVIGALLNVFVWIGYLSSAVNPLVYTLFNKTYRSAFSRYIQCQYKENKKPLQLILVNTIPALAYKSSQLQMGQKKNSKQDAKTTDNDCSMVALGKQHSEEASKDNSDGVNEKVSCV

SMILES	Ki (human 5-HT2AR; [4])	Ki (human 5-HT2BR; [4])	Ki (human 5-HT2CR [2]; [4])	Ki (human H1; [4])	change in vivo at 100 µM (scn1lab mutant zebrafish; [5])	change in vivo at 250 µM (scn1lab mutant zebrafish; [5])	change in vivo at 100 µM (scn1lab mutant zebrafish; [6])	change in vivo at 250 µM (scn1lab mutant zebrafish; [6])	change in vivo at 100 µM (scn1lab mutant zebrafish; [7])	change in vivo at 250 µM (scn1lab mutant zebrafish; [7])	change in vivo at 100 µM (scn1lab mutant zebrafish; [8])	change in vivo at 250 µM (scn1lab mutant zebrafish; [8])	change in vivo at 100 µM (scn1lab mutant zebrafish; [9])	change in vivo at 250 µM (scn1lab mutant zebrafish; [9])	change in vivo at 100 µM (scn1lab mutant zebrafish; [10])	change in vivo at 250 µM (scn1lab mutant zebrafish; [10])	change in vivo at 100 µM (scn1lab mutant zebrafish; [11])	change in vivo at 250 µM (scn1lab mutant zebrafish; [11])	change in vivo at 100 µM (scn1lab mutant zebrafish; [12])	Ki (human 5-HT2AR)	further results
FC1(F)CCN(Cc2nc3ccccc3n2Cc2ccc(Cl)cc2)CC1 [Compound 27]	> 10000 nM	> 10000 nM	7150 nM	442 nM																	toxicity in initial analogue screening [1]: toxic
c1ccc(Cn2c(CN3CCCC3)nc3ccccc32)cc1 [Compound 3]	327 nM	83 nM	292 nM	4.8 nM																	
Fc1ccc(Cn2c(CN3CCCC3)nc3ccccc32)cc1 [Compound 7]	15 nM	46 nM	345 nM	1 nM																	
Clc1ccc(Cn2ccnc2CN2CCCC2)cc1 [Compound 9]					-13.5%	-94%	-0.7%	-100%	-34.9%	-22.5%	-57.3%	-100%	34.4%	-38.8%	-33.2%	-100%	-28.1%	-73.2%	-28.1%	> 10000 nM	effect on seizure-like swim behaviour, initial library screen (scn1lab mutant zebrafish): effective in suppressing; change in vivo at 250 µM (scn1lab mutant zebrafish; [12]): -100%; toxicity at 250 µM ([1]; 250 µM): toxic; Ki (human 5-HT2BR): > 10000 nM; Ki (human 5-HT2CR [2]): 447 nM; Ki (human H1): 29 nM
Clc1ccc(Cn2c(CN3CCCC3)cc3ccccc32)cc1 [Compound 11]					39.3%	-100%	403%	-100%	91.2%	-100%	120%	-100%	149%	-100%	66.8%	-100%	124%	-100%	124%	631 nM	Ki (human 5-HT2BR): 134 nM; Ki (human 5-HT2CR [2]): 248 nM; Ki (human H1): 6.4 nM
Cl.Clc1cccc(N2CCNCC2)c1 [m-CPP, reference compound]																					effect on seizure-like swim behaviour, commercially available compounds (scn1lab mutant zebrafish; 30 and 90 min exposure): biphasic response
CCCn1c(CN2CCCC2)nc2ccccc21.O=CO [Compound 5]	> 10000 nM	219 nM	> 10000 nM	362 nM																	effect on seizure-like swim behaviour, initial library screen (scn1lab mutant zebrafish): no significant effect on swim behaviour; effect on seizure-like swim behaviour, retest of independently synthesized compound (scn1lab mutant zebrafish; 10, 50, 100 and 250 µM, 30 and 90 min exposure): no significant effect on the swim behaviour
CCN(CC)Cc1nc2ccccc2n1Cc1ccc(Cl)cc1 [Compound 24]					67.6%	-100%	330%	-100%	-70.1%	-90%	-28%	-100%	-30.1%	-100%	-3.9%	-100%	3.5%	-98.7%	3.5%	1260 nM	toxicity in initial analogue screening [1]: toxic; Ki (human 5-HT2BR): 115 nM; Ki (human 5-HT2CR [2]): 1410 nM; Ki (human H1): 3.7 nM
CC(N)Cc1c[nH]c2ccc(OCc3cccs3)cc12 (centres unmarked) [reference compound]																					effect on seizure-like swim behaviour, commercially available compounds (scn1lab mutant zebrafish; 30 and 90 min exposure): failed to reach our significance threshold; Ki (human 5-HT2CR [3]): 115 nM

Source: article PMC6798786 (Brain Communications, 2019)
